Test [1] has as its system TAO incorporated into PLs. Set-up: method as in PMID 29133414. Particulars: cited from earlier work.
The test system of another test is solubilised TAO. Set-up: method as in PMID 29107420. The note with it: cited from earlier work.
The next test addresses membrane-bound rMpAOX (Moniliophthora perniciosa, UniProt A8QJP8). The test can be described thus: Dose-response assay of inhibitors with membrane-bound, GMP-activated rMpAOX (NADH oxidation). Type of test: biochemical. How it is done:
E. coli membrane preparation was performed as described with minor modifications. […] The cells were disrupted using two passes at […] through a pre-cooled Constant cell disruption system (Constant Systems Ltd). The lysate was centrifuged for 15 min at 16,000 rcf, and the pelleted unbroken cells and large cell debris were discarded. The supernatant was centrifuged for 90 min at 200,000 rcf to collect the fragmented membranes.
(§1) Respiration rates were recorded before and after the addition of putative AOX activators, such as 5′-ADP, 5′-AMP, 5′-GDP, 5′-GMP, glyoxylate, oxaloacetate, pyruvate or succinate (1 mM each unless stated otherwise). […] Data were acquired with the Multiskan FC Microplate Photometer (ThermoFisher). […] Absorbance readings were taken periodically and a blank reactions (substrate without enzyme) were included in every assay and were used to determine and subtract the autoxidation rate (background). Proteoliposomes were assayed as described for the E. coli membrane fraction except that no KCN was included and 0.5 µL of the prep (~50 ng rMpAOX) were added into the reaction. When tested, inhibitors were preincubated with the enzyme in reaction buffer for 2–5 min before starting the reaction by the addition of substrate. The path length (i.e., the height of the reaction medium inside the well) was calculated based on the reaction volume and the well cross-section area informed by the supplier. GraphPad Prism 7.0 (GraphPad Software Inc.) was used for function fitting.

Test [2] has as its target rMpAOX incorporated into proteoliposomes (Moniliophthora perniciosa, UniProt A8QJP8). In words: rMpAOX incorporated into proteoliposomes with Q10 and NDH-2 (NADH oxidation). Format: biochemical. The method, then:
Proteoliposomes (PL) were prepared as previously described[44],[45], except that NDH-2 was used instead of complex I and 0.5% DDM was used instead of OG. […] For kinetic studies, PLs were prepared with 50 µg rMpAOX and no NDH-2—in this case, pure NDH-2 was added directly into the enzymatic reaction mixture at a saturating concentration. Briefly, lipids and Q10 stocks in chloroform were mixed in a glass vial and the chloroform dried under a nitrogen stream. The lipids were hydrated and extruded through a 100 nm NanoSizer MINI Liposome Extruder (T&T Scientific) followed by the addition of protein. After treatment with the Bio-Beads SM-2 Resin (Bio-Rad), proteolipososmes were harvested by ultracentrifugation and resuspended in 150 µL of buffer. Enzymatic assays were performed on the same day.
as §1

The target in another test is purified rMpAOX (Moniliophthora perniciosa, UniProt A8QJP8). In words: Purified (detergent-solubilised) rMpAOX, Q1H2 oxidation. Format: biochemical. How it is done: The E. coli membrane fraction was resuspended with 50 mM Tris-HCl pH 7.5, 20% glycerol, 200 mM MgSO4 and 1% Fos-Choline-12 (FC-12) instead of MOPS buffer. The sample was left under gentle rocking for 1 h at 4 °C, after which it was centrifuged at 200,000 rcf for 30 min. […] T. Elthon, Nebraska, USA. Protein content was estimated through the Bradford method[63] and bovine serum albumin as standard.
as §1

The test system of another test is membrane-bound TAO. Further details: method as in PMID 23180806. Particulars: cited from earlier work.
A further test relates to M. perniciosa. Set-up: method as in PMID 22443281, PMID 30350447. Particulars: cited from earlier work.

Each structure is given as a SMILES string. pIC50, pKi: −log10 of the molar value. “And” between values parts separate entries of the source, which are not always exact repeats. Identical values can stand only once.

Sequence of rMpAOX incorporated into proteoliposomes (A8QJP8 entry or part of it): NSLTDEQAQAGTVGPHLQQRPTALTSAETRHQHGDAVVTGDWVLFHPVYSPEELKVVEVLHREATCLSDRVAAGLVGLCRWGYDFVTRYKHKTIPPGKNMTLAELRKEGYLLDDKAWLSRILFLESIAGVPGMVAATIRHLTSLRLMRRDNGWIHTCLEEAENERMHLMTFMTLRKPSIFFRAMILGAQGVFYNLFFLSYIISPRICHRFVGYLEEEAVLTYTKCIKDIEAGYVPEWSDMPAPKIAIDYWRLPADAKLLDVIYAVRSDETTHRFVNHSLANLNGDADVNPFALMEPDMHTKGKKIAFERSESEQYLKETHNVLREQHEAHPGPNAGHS
Sequence of membrane-bound rMpAOX (A8QJP8 entry or part of it): as above
Sequence of purified rMpAOX (A8QJP8 entry or part of it): as above

As to `CC(C)=CCC/C(C)=C/Cc1c(O)c(Cl)c(C)c(C=O)c1O` [CB, colletochlorin B], the “CB-to-enzyme ratio at the IC50 concentration” value is 1.4 in test [1] and 1.3 in the test with solubilised TAO. For the same compound, the “Fractional velocity, %” value on membrane-bound rMpAOX (log[I], M -4.60206 (Fig2b), 25 µM) was 2.536% and 2.662% and 8.437%; at membrane-bound rMpAOX (log[I], M -5.60206 (Fig2b), 2.5 µM), 2.977% and 3.203% and 8.094%; at membrane-bound rMpAOX (log[I], M -6.60206 (Fig2b), 0.25 µM), 4.262% and 7.7642% and 10.3237%; at membrane-bound rMpAOX (log[I], M -8.60206 (Fig2b), 0.0025 µM) it was 76.0268% and 98.1726% and 76.3221%; at membrane-bound rMpAOX (log[I], M -9.60206 (Fig2b), 0.00025 µM) it was 96.6921% and 90.9449%; at membrane-bound rMpAOX (log[I], M -10.6021 (Fig2b), 25 pM), 95.8052% and 91.68%. Further, the “Fractional velocity, %” value in test [2] (log[CB], M -4.60206 (Fig4b), 25 µM) turned out to be 2.151%; in test [2] (log[CB], M -5.60206 (Fig4b), 2.5 µM), 4.07%; in test [2] (log[CB], M -6.60206 (Fig4b), 0.25 µM), 11.8798%; in test [2] (log[CB], M -7.60206 (Fig4b), 0.025 µM) it was 47.093%; in test [2] (log[CB], M -8.60206 (Fig4b), 0.0025 µM), 86.8217%; in test [2] (log[CB], M -9.60206 (Fig4b), 0.00025 µM), 97.2868%. The “Fractional velocity, %” value in test [2] (log[CB], M -10.6021 (Fig4b), 25 pM) is recorded as 98.4496%. Also, the activity at 0.00025 µM on membrane-bound rMpAOX (log[I], M -9.60206 (Fig2b), read-out: Fractional velocity, %) stood at 96.2%; in test [2] (log[CB], M -9.60206 (Fig4b), read-out: Fractional velocity, %) it was 99.3%; on purified rMpAOX ([I], M 2.5e-10, read-out: Dose-response assay with CB, (Fig3d)), 99.7%. Moreover, the activity at 25 pM turned out to be 92% at membrane-bound rMpAOX (log[I], M -10.6021 (Fig2b), read-out: Fractional velocity, %); 98.7% in test [2] (log[CB], M -10.6021 (Fig4b), read-out: Fractional velocity, %); 99% at purified rMpAOX ([I], M 2.5e-11, read-out: Dose-response assay with CB, (Fig3d)). For the same compound, the pIC50 on membrane-bound rMpAOX (membrane-bound, GMP-activated rMpAOX, read-out: IC50) is 7.83; in test [2] (proteoliposomes with rMpAOX, Q10 and NDH-2), 7.71; against purified rMpAOX (purified rMpAOX, enzyme 49.1 nM) it was 7.23; with membrane-bound TAO, 9.70. The activity at 25 µM was 2.86% in test [2] (log[CB], M -4.60206 (Fig4b), read-out: Fractional velocity, %) and 0% on purified rMpAOX ([I], M 2.5e-5, read-out: Dose-response assay with CB, (Fig3d)). The activity at 2.5 µM in test [2] (log[CB], M -5.60206 (Fig4b), read-out: Fractional velocity, %) came out at 3.2%; at purified rMpAOX ([I], M 2.5e-6, read-out: Dose-response assay with CB, (Fig3d)), 10.4%. For the same compound, the activity at 0.25 µM in test [2] (log[CB], M -6.60206 (Fig4b), read-out: Fractional velocity, %) came to 11.1%; at purified rMpAOX ([I], M 2.5e-7, read-out: Dose-response assay with CB, (Fig3d)), 22.7%. The activity at 0.025 µM was 46.1% in test [2] (log[CB], M -7.60206 (Fig4b), read-out: Fractional velocity, %) and 69.2% at purified rMpAOX ([I], M 2.5e-8, read-out: Dose-response assay with CB, (Fig3d)). For the same compound, the activity at 0.0025 µM in test [2] (log[CB], M -8.60206 (Fig4b), read-out: Fractional velocity, %) was 74.5%; on purified rMpAOX ([I], M 2.5e-9, read-out: Dose-response assay with CB, (Fig3d)) it was 94.6%. For the same compound, the activity at 2.5 pM in test [2] (log[CB], M -11.6021 (Fig4b), read-out: Fractional velocity, %) was 100%; on purified rMpAOX ([I], M 2.5e-12, read-out: Dose-response assay with CB, (Fig3d)), 99.5%. In addition, the pKi at purified rMpAOX (Morrison equation for tight-binders, read-out: KIapp) is 7.86. The activity at 10 pM at purified rMpAOX ([I], M 1e-11, read-out: Dose-response assay with CB, Fig3d) is 98%. The activity at 0.0001 µM at purified rMpAOX ([I], M 1e-10, read-out: Dose-response assay with CB, Fig3d) came to 100%. At purified rMpAOX ([I], M 1e-9, read-out: Dose-response assay with CB, Fig3d), the activity at 0.001 µM turned out to be 96.8%. The activity at 0.01 µM at purified rMpAOX ([I], M 1e-8, read-out: Dose-response assay with CB, Fig3d) came out at 79.3%. Further, the activity at 0.1 µM at purified rMpAOX ([I], M 1e-7, read-out: Dose-response assay with CB, Fig3d) was 36.9%. At purified rMpAOX ([I], M 1e-6, read-out: Dose-response assay with CB, Fig3d), the activity at 1 µM was found to be 8.98%. Also, the activity at 10 µM on purified rMpAOX ([I], M 1e-5, read-out: Dose-response assay with CB, Fig3d) was found to be 2.99%. Moreover, the activity at 100 µM on purified rMpAOX ([I], M 0.0001, read-out: Dose-response assay with CB, Fig3d) amounted to 3.34%. The “CB-to-rMpAOX ratio at the IC50 concentration” value on purified rMpAOX (enzyme 49.1 nM) is listed as 1.2.

For `CCCOC(=O)c1cc(O)c(O)c(O)c1` [n-propyl gallate], in the test with M. perniciosa, the “Concentrations that inhibit M. perniciosa growth” value is recorded as “millimolar concentrations”.

As usually defined, the pIC50 is the negative decadic logarithm of the IC50, by convention in mol/L.

Values taken from paper PMC7248098, “Biochemical characterization and inhibition of the alternative oxidase enzyme from the fungal phytopathogen Moniliophthora perniciosa” (Communications Biology, 2020).
